Source: PubChem BioAssay AID256 (DTP/NCI, 2004)
Values joined by “and” are separate entries in the source; they are usually repeats but may differ in a detail not shown here. Equal entries are not always repeated. Inconclusive results and toxic doses are left out. The calls were made as follows: active = survival T/C of 150% or more; inactive = T/C below 125% in these data.

Test system: CD2F1 mice, L1210 leukemia ip, survival T/C
Assay: NCI In Vivo Anticancer Drug Screen. Data for tumor model L1210 Leukemia (intraperitoneal) in CD2F1 (CDF1) mice
Conditions: higher = longer survival
Outline: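 Tumor-bearing mice (transplanted tumor) were split into treated and vehicle control groups, and the measured endpoint of each treated group was divided by that of its vehicle controls.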

[1] = endpoint: mean survival time, dose: 100.0 mg/kg/injection, schedule: Q04DX003 (ip), vehicle: saline with Tween-80
[2] = endpoint: mean survival time, dose: 200.0 mg/kg/injection, schedule: Q04DX003 (ip), vehicle: saline with Tween-80
[3] = endpoint: mean survival time, dose: 400.0 mg/kg/injection, schedule: Q04DX003 (ip), vehicle: saline with Tween-80
[4] = endpoint: mean survival time, dose: 100.0 mg/kg/injection, schedule: Q01DX009 (ip), vehicle: saline with Tween-80
[5] = endpoint: mean survival time, dose: 200.0 mg/kg/injection, schedule: Q01DX009 (ip), vehicle: saline with Tween-80
[6] = endpoint: mean survival time, dose: 12.5 mg/kg/injection, schedule: Q01DX005 (ip), vehicle: other
[7] = endpoint: mean survival time, dose: 25.0 mg/kg/injection, schedule: Q01DX005 (ip), vehicle: other
[8] = endpoint: mean survival time, dose: 50.0 mg/kg/injection, schedule: Q01DX005 (ip), vehicle: other
[9] = endpoint: mean survival time, dose: 100.0 mg/kg/injection, schedule: Q01DX005 (ip), vehicle: other

Measured: T/C

COc1c(C2OC(CO)C(O)C2O)nn(C)c1C(N)=O (stereo unspecified)
inactive: endpoint: median survival time, dose: 48.5 mg/kg/injection, schedule: Q01DX005 (ip), vehicle: saline 100 % of control | endpoint: median survival time, dose: 97.0 mg/kg/injection, schedule: Q01DX005 (ip), vehicle: saline 102 % of control | endpoint: median survival time, dose: 193.9 mg/kg/injection, schedule: Q01DX005 (ip), vehicle: saline 100 % of control

Cn1c(CC(O)(C(F)(F)F)C(F)(F)F)c(C(O)(C(F)(F)F)C(F)(F)F)c2ccccc21
inactive: endpoint: mean survival time, dose: 5.0 mg/kg/injection, schedule: Q04DX003 (ip), vehicle: saline with Tween-80 101 % of control | endpoint: mean survival time, dose: 10.0 mg/kg/injection, schedule: Q04DX003 (ip), vehicle: saline with Tween-80 90 % of control | endpoint: mean survival time, dose: 20.0 mg/kg/injection, schedule: Q04DX003 (ip), vehicle: saline with Tween-80 90 % of control

Cc1cccn(O)c1=NC(=O)c1ccccc1
inactive: [1] 95 % of control | [2] 105 % of control | [3] 86 % of control

COc1ccc(/C=N\NC(=O)CCCCCCCCC(=O)N/N=C\c2ccc(OC)c(O)c2)cc1O
inactive: endpoint: mean survival time, dose: 50.0 mg/kg/injection, schedule: Q01DX009 (ip), vehicle: saline with Tween-80 97 % of control | [4] 97 % of control | [5] 105 % of control

COc1cc(C(O)C(Cl)(Cl)Cl)ccc1O (stereo unspecified)
inactive: endpoint: mean survival time, dose: 100.0 mg/kg/injection, schedule: Q01DX009 (ip), vehicle: other 94 % of control | endpoint: mean survival time, dose: 200.0 mg/kg/injection, schedule: Q01DX009 (ip), vehicle: other 105 % of control | endpoint: mean survival time, dose: 400.0 mg/kg/injection, schedule: Q01DX009 (ip), vehicle: other 94 % of control

[CH3][Sn]1([CH3])[O]C2C(CO)OC(n3cnc4c(=O)[nH]c(N)nc43)C2[O]1 (stereo unspecified)
inactive: [6] 98 % of control | [7] 101 % of control | [8] 102 % of control | [9] 93 % of control

CC(Cc1ccccc1)NNC(C)Cc1ccccc1 (stereo unspecified)
inactive: endpoint: mean survival time, dose: 75.0 mg/kg/injection, schedule: Q01DX001 (ip), vehicle: saline 98 % of control | endpoint: mean survival time, dose: 150.0 mg/kg/injection, schedule: Q01DX001 (ip), vehicle: saline 102 % of control | endpoint: mean survival time, dose: 300.0 mg/kg/injection, schedule: Q01DX001 (ip), vehicle: saline 97 % of control

CCCCC(=O)O.[Pb]
inactive: endpoint: mean survival time, dose: 75.0 mg/kg/injection, schedule: Q01DX001 (ip), vehicle: steriod suspending solution 100 % of control | endpoint: mean survival time, dose: 150.0 mg/kg/injection, schedule: Q01DX001 (ip), vehicle: steriod suspending solution 104 % of control | endpoint: mean survival time, dose: 300.0 mg/kg/injection, schedule: Q01DX001 (ip), vehicle: steriod suspending solution 97 % of control

S=c1nc[nH]c2nc(-c3ccccc3)[nH]c12
inactive: [6] 98 % of control | [7] 96 % of control | [8] 102 % of control | [9] 98 % of control | endpoint: mean survival time, dose: 200.0 mg/kg/injection, schedule: Q01DX005 (ip), vehicle: other 93 % of control

Oc1c(C(c2ccccc2)N2CCCCC2)ccc2ccccc12 (stereo unspecified)
inactive: [4] 101 % of control | [5] 97 % of control

CCCN(CCC)CCC(=O)OCC
inactive: [4] 97 % of control | [1] 97 % of control | [5] 97 % of control | [2] 114 % of control | endpoint: mean survival time, dose: 400.0 mg/kg/injection, schedule: Q01DX009 (ip), vehicle: saline with Tween-80 100 % of control | [3] 100 % of control

ClC1CC[N-]CC1.ClC1CC[N-]CC1.[Cl][Pt+2]([Cl])([Cl])[Cl]
inactive: endpoint: mean survival time, dose: 12.5 mg/kg/injection, schedule: Q01DX009 (ip), vehicle: water 123 % of control | endpoint: mean survival time, dose: 25.0 mg/kg/injection, schedule: Q01DX009 (ip), vehicle: water 110 % of control

CC(C(N)=O)C1CCC2(C)CCC(=O)C(C)C2C1O (stereo unspecified)
inactive: endpoint: mean survival time, dose: 100.0 mg/kg/injection, schedule: Q04DX002 (ip), vehicle: saline with Tween-80 104 % of control | endpoint: mean survival time, dose: 200.0 mg/kg/injection, schedule: Q04DX002 (ip), vehicle: saline with Tween-80 120 % of control | endpoint: mean survival time, dose: 400.0 mg/kg/injection, schedule: Q04DX002 (ip), vehicle: saline with Tween-80 120 % of control

O=C1C=CC(=CC=C2C=CN(CCCCCCCCCCCO)C=C2)C=C1
inactive: endpoint: median survival time, dose: 1.56 mg/kg/injection, schedule: Q01DX005 (ip), vehicle: saline with Tween-80 96 % of control | endpoint: median survival time, dose: 2.25 mg/kg/injection, schedule: Q01DX005 (ip), vehicle: saline with Tween-80 102 % of control and 105 % of control | endpoint: median survival time, dose: 3.13 mg/kg/injection, schedule: Q01DX005 (ip), vehicle: saline with Tween-80 107 % of control | endpoint: median survival time, dose: 3.75 mg/kg/injection, schedule: Q01DX005 (ip), vehicle: saline with Tween-80 102 % of control and 105 % of control | endpoint: median survival time, dose: 6.25 mg/kg/injection, schedule: Q01DX005 (ip), vehicle: saline with Tween-80 117 % of control and 109 % of control | endpoint: median survival time, dose: 10.4 mg/kg/injection, schedule: Q01DX005 (ip), vehicle: saline with Tween-80 118 % of control | endpoint: median survival time, dose: 10.41 mg/kg/injection, schedule: Q01DX005 (ip), vehicle: saline with Tween-80 118 % of control | endpoint: median survival time, dose: 12.5 mg/kg/injection, schedule: Q01DX005 (ip), vehicle: saline with Tween-80 119 % of control | endpoint: median survival time, dose: 17.35 mg/kg/injection, schedule: Q01DX005 (ip), vehicle: saline with Tween-80 119 % of control | endpoint: median survival time, dose: 17.4 mg/kg/injection, schedule: Q01DX005 (ip), vehicle: saline with Tween-80 121 % of control | endpoint: median survival time, dose: 25.0 mg/kg/injection, schedule: Q01DX005 (ip), vehicle: saline with Tween-80 92 % of control

CNC(=O)/C(=C\c1ccccc1Cl)NC(C)=O
inactive: endpoint: mean survival time, dose: 100.0 mg/kg/injection, schedule: Q01DX001 (ip), vehicle: saline with Tween-80 97 % of control | endpoint: mean survival time, dose: 200.0 mg/kg/injection, schedule: Q01DX001 (ip), vehicle: saline with Tween-80 93 % of control | endpoint: mean survival time, dose: 400.0 mg/kg/injection, schedule: Q01DX001 (ip), vehicle: saline with Tween-80 93 % of control

CC(=O)NCCN
inactive: endpoint: mean survival time, dose: 50.0 mg/kg/injection, schedule: Q04DX003 (ip), vehicle: saline 101 % of control | endpoint: mean survival time, dose: 100.0 mg/kg/injection, schedule: Q04DX003 (ip), vehicle: saline 95 % of control | endpoint: mean survival time, dose: 200.0 mg/kg/injection, schedule: Q04DX003 (ip), vehicle: saline 97 % of control

CS(=O)(=O)Nc1ccc(NS(C)(=O)=O)cc1
inactive: [1] 98 % of control | [2] 102 % of control | [3] 97 % of control

CC(C)=NNc1nc2c(N)ncnc2n1C1OC(CO)C(O)C1O (stereo unspecified)
inactive: endpoint: mean survival time, dose: 12.5 mg/kg/injection, schedule: Q01DX005 (ip), vehicle: distilled water + Tween-80 97 % of control | endpoint: mean survival time, dose: 12.5 mg/kg/injection, schedule: Q01DX005 (ip), vehicle: water 96 % of control | endpoint: mean survival time, dose: 25.0 mg/kg/injection, schedule: Q01DX005 (ip), vehicle: distilled water + Tween-80 97 % of control | endpoint: mean survival time, dose: 25.0 mg/kg/injection, schedule: Q01DX005 (ip), vehicle: water 94 % of control | endpoint: mean survival time, dose: 50.0 mg/kg/injection, schedule: Q01DX005 (ip), vehicle: distilled water + Tween-80 97 % of control | endpoint: mean survival time, dose: 50.0 mg/kg/injection, schedule: Q01DX005 (ip), vehicle: water 99 % of control | endpoint: mean survival time, dose: 100.0 mg/kg/injection, schedule: Q01DX005 (ip), vehicle: distilled water + Tween-80 97 % of control | endpoint: mean survival time, dose: 100.0 mg/kg/injection, schedule: Q01DX005 (ip), vehicle: water 99 % of control | endpoint: mean survival time, dose: 200.0 mg/kg/injection, schedule: Q01DX005 (ip), vehicle: distilled water + Tween-80 100 % of control | endpoint: mean survival time, dose: 200.0 mg/kg/injection, schedule: Q01DX005 (ip), vehicle: water 97 % of control

Cn1nc2ccccc2c1C#N
inactive: endpoint: mean survival time, dose: 50.0 mg/kg/injection, schedule: Q01DX001 (ip), vehicle: saline 102 % of control | endpoint: mean survival time, dose: 100.0 mg/kg/injection, schedule: Q01DX001 (ip), vehicle: saline 103 % of control | endpoint: mean survival time, dose: 200.0 mg/kg/injection, schedule: Q01DX001 (ip), vehicle: saline 96 % of control
